Marks after values point to notes of the source that are not given here.
Experiments:
ERβ = ERβ (Homo sapiens, UniProt Q92731); test: ER-regulated reporter gene; conditions: U2OS, read-out: Hormonal activity (U2OS Cells) ERβ IA (intrinsic activity)
U2OS cells = test: Cell density of transfected U2OS cells; type: cell-based
full-length human ERβ = full-length human ERβ (Homo sapiens, UniProt Q92731); conditions: relative to E2 = 100%; cited from earlier work
MCF-7 = test: Growth inhibition of ER-positive MCF-7 cells, 96h; type: cell-based; conditions: read-out: Growth inhibition IC50 after 96h MCF7, OHT ligands
MDA-MB-231 = test: Growth inhibition of ER-negative MDA-MB-231 cells, 96h; type: cell-based; conditions: read-out: Growth inhibition IC50 after 96h MDA-MB-231, OHT ligands

Chain of ERβ (Q92731 whole entry): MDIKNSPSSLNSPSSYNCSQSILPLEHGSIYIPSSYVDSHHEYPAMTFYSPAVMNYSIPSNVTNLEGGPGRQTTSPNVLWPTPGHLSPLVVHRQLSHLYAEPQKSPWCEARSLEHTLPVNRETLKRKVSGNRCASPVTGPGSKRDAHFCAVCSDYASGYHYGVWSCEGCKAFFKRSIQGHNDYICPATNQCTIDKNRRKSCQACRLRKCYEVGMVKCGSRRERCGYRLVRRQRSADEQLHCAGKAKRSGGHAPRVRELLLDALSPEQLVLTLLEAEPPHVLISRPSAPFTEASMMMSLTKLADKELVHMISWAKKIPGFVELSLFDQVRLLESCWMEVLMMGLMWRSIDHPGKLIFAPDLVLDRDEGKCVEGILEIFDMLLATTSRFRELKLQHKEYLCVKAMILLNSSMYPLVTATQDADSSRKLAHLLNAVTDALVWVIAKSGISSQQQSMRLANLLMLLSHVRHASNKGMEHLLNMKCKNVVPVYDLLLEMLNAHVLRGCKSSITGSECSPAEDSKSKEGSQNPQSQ
Chain of full-length human ERβ (Q92731 whole entry): as above

Emax (ERβ) [%]	Hormonal activity (U2OS Cells) ERα CD (cell density) (U2OS cells; 10nM) [%]	Hormonal activity (U2OS Cells) ERβ CD (cell density) (U2OS cells; 10nM) [%]	IC50 (MCF-7) [nM]	IC50 (MDA-MB-231) [nM]	Hormonal activity (U2OS Cells) ERα CD (cell density) (U2OS cells; 1μM) [%]	Hormonal activity (U2OS Cells) ERβ CD (cell density) (U2OS cells; 1μM) [%]	SMILES	RBA for ERβ (full-length human ERβ)
111	103	90					CC/C(=C(/CC)c1ccc(O)cc1)c1ccc(O)cc1 [DES, diethylstilbestrol]	278 ± 54 ^f %
			150	4590	110	92	CC/C(=C(\c1ccc(O)cc1)c1ccc(OCCN(C)C)cc1)c1ccccc1 [OHT, hydroxytamoxifen]	
